Reference: patent publication US12442035B2, “Compositions and methods for detecting antibiotic responsive mRNA expression signatures and uses thereof” (THE BROAD INSTITUTE, INC., priority 2018, dated 2025)
≈ marks a conversion by molar mass, not a printed value. Entries after “also recorded” stand apart in the source; their conditions may differ. Like-named read-outs stand apart in the source and are kept apart here.

Legend:
[1] = system: K. pneumoniae clinical isolates; experiment: RNA-Seq transcriptional response to antibiotic exposure, GO term enrichment; assay type: cell-based, Klebsiella pneumoniae; conditions: CLSI breakpoint concentration, 0, 10, 30, 60 minutes
Source text: (§1) Fisher's combined probability test was used to select only those genes whose expression after antibiotic treatment was statistically distinguishable from its expression at any timepoint in the untreated samples. Gene ontology (GO) terms were assigned using blast2GO (version 1.4.4), with hypergeometric testing for enrichment. For each pathogen-antibiotic pair, the fold-change threshold in DESeq2 used to test statistical significance was increased to select 60-100 antibiotic-responsive transcripts with maximal stringency, a number readily accommodated by the NanoString® assay format. […] As with responsive genes, the fold-change threshold was varied in order to select the top 10-20 control transcripts. […] See Supplemental Methods sections below for further details.
(§2) After antibiotic treatment as described in the above Materials and Methods section, cells were pelleted, resuspended in 0.5 mL Trizol reagent (ThermoFisher Scientific), transferred to 1.5 mL screw-cap tubes containing 0.25 mL of 0.1 mm diameter Zirconia/Silica beads (BioSpec Products), and lysed mechanically via bead-beating for 3-5 one-minute cycles on a Minibeadbeater-16 (BioSpec) or one 90-second cycle at 10 m/sec on a FastPrep (MP Bio). After addition of 0.1 mL chloroform, each sample tube was mixed thoroughly by inversion, incubated for 3 minutes at room temperature, and centrifuged at 12,000×g for 15 minutes at 4° C. […]

[2] = system: E. coli clinical isolates; experiment: Standard broth microdilution MIC; assay type: cell-based, Escherichia coli; conditions: for MIC: Escherichia coli
[3] = system: E. coli clinical isolates; experiment: RNA-Seq transcriptional response to antibiotic exposure, GO term enrichment; assay type: cell-based, Escherichia coli; conditions: CLSI breakpoint concentration, 0, 10, 30, 60 minutes
[4] = system: A. baumannii clinical isolates; experiment: as above; assay type: cell-based, Acinetobacter baumannii; conditions: CLSI breakpoint concentration, 0, 10, 30, 60 minutes
Source text: as §1, §2

[5] = system: S. aureus clinical isolates; experiment: Standard broth microdilution MIC; assay type: cell-based; conditions: Staphylococcus aureus, read-out: levo MIC
[6] = system: K. pneumoniae clinical isolates; experiment: Standard broth microdilution MIC; assay type: cell-based, Klebsiella pneumoniae

Question: `C[C@@H](O)[C@H]1C(=O)N2C(C(=O)O)=C(S[C@@H]3CN[C@H](C(=O)N(C)C)C3)[C@H](C)[C@H]12` [meropenem] was tested. Which “Gene ontology enrichment of antibiotic-responsive transcripts” value (from here on “Gene ontology enrichment”) [1] did it give?
Answer: affected lipopolysaccharide biosynthesis

Question: And the MIC ([2]; BAA2523, E. coli BAA2523 (blaOXA-48), inoculum of 10^7 cfu/mL)?
Answer: ≥ 32 µg/mL

Question: And the MIC ([2]; BAA2523, E. coli BAA2523 (blaOXA-48), standard broth microdilution, inoculum of 10^5 cfu/mL)?
Answer: 0.5 to 1 µg/mL (≈ 1.3 to 2.61 µM)

Question: And the MIC ([2]; E. coli AR0104 (blaKPC-4), inoculum of 10^7 cfu/mL)?
Answer: ≥ 32 µg/mL

Question: And the MIC ([2]; E. coli AR0104 (blaKPC-4), standard broth microdilution, inoculum of 10^5 cfu/mL)?
Answer: 0.5 to 1 µg/mL (≈ 1.3 to 2.61 µM)

Question: What about the “Gene ontology enrichment” value [3] of the same molecule?
Answer: affected lipopolysaccharide biosynthesis; also recorded: induced a heat shock response

Question: And the “Gene ontology enrichment” value [4]?
Answer: induced a heat shock response

Question: Which results are given for `C[C@H]1COc2c(N3CCN(C)CC3)c(F)cc3c(=O)c(C(=O)O)cn1c23` [levofloxacin]?
Answer: MIC ([5]; S. aureus strain RB003): 0.125 µg/mL (≈ 0.346 µM); MIC ([5]; S. aureus strain RB004): 32 µg/mL (≈ 88.6 µM); MIC ([5]; S. aureus strain RB006): 0.06 µg/mL (≈ 0.166 µM); MIC ([5]; S. aureus strain RB007): 16 µg/mL (≈ 44.3 µM); MIC ([5]; S. aureus strain RB010): > 32 µg/mL; MIC ([5]; S. aureus strain RB045): 32 µg/mL (≈ 88.6 µM); MIC ([5]; S. aureus strain RB047): > 32 µg/mL; MIC ([5]; S. aureus strain RB064): 8 µg/mL (≈ 22.1 µM); MIC ([5]; S. aureus strain RB065): 0.06 µg/mL (≈ 0.166 µM); MIC ([5]; S. aureus strain RB066): 0.06 µg/mL (≈ 0.166 µM); MIC ([5]; S. aureus strain RB067): 0.13 µg/mL (≈ 0.36 µM); MIC ([5]; S. aureus strain RB0069): 0.13 µg/mL (≈ 0.36 µM); MIC ([5]; S. aureus strain RB072): 4 µg/mL (≈ 11.1 µM); MIC ([5]; S. aureus strain RB074): 32 µg/mL (≈ 88.6 µM); MIC ([5]; S. aureus strain RB090): 32 µg/mL (≈ 88.6 µM); MIC ([5]; S. aureus strain RB095): 32 µg/mL (≈ 88.6 µM); MIC ([5]; S. aureus strain RB096): 0.13 µg/mL (≈ 0.36 µM); MIC ([5]; S. aureus strain RB098): 0.13 µg/mL (≈ 0.36 µM); MIC ([5]; S. aureus strain RB211): 16 µg/mL (≈ 44.3 µM); MIC ([5]; S. aureus strain RB219): 32 µg/mL (≈ 88.6 µM); MIC ([5]; S. aureus strain RB221): 0.13 µg/mL (≈ 0.36 µM); MIC ([5]; S. aureus strain RB223): 0.13 µg/mL (≈ 0.36 µM); MIC ([5]; S. aureus strain RB245): 0.25 µg/mL (≈ 0.692 µM); MIC ([5]; S. aureus strain RB247): 0.5 µg/mL (≈ 1.38 µM)

Question: Which “mero MIC” value ([2]; EcMero strain AR0048) does the source give for `C[C@@H](O)[C@H]1C(=O)N2C(C(=O)O)=C(S[C@@H]3CN[C@H](C(=O)N(C)C)C3)[C@H](C)[C@H]12` [mero] here?
Answer: 32 mg/L

Question: And the “mero MIC” value ([2]; EcMero strain AR0055)?
Answer: 8 mg/L

Question: What about the “mero MIC” value ([2]; EcMero strain AR0058) of the same molecule?
Answer: 0.25 mg/L

Question: What about the “mero MIC” value ([2]; EcMero strain AR0061) of the same molecule?
Answer: 8 mg/L

Question: And the “mero MIC” value ([2]; EcMero strain AR0069)?
Answer: 16 mg/L

Question: And the “mero MIC” value ([2]; EcMero strain AR0077)?
Answer: 0.5 mg/L

Question: What about the “mero MIC” value ([2]; EcMero strain AR0089) of the same molecule?
Answer: 0.5 mg/L

Question: What about the “mero MIC” value ([2]; EcMero strain AR0104, value marked *) of the same molecule?
Answer: 1* mg/L

Question: What about the “mero MIC” value ([2]; EcMero strain BAA2469) of the same molecule?
Answer: 16 mg/L

Question: And the “mero MIC” value ([2]; EcMero strain BAA2523 (RB553), value marked *)?
Answer: 0.5* mg/L

Question: What about the “mero MIC” value ([2]; EcMero strain BIDMC_77) of the same molecule?
Answer: 0.5 mg/L

Question: What about the “mero MIC” value ([2]; EcMero strain IDR1200024571) of the same molecule?
Answer: >32 mg/L

Question: And the “mero MIC” value ([2]; EcMero strain IDR1200039757)?
Answer: >32 mg/L

Question: What about the “mero MIC” value ([2]; EcMero strain IDR1300027657) of the same molecule?
Answer: 1 mg/L

Question: What about the “mero MIC” value ([2]; EcMero strain IDR1600029769) of the same molecule?
Answer: 8 mg/L

Question: What about the “mero MIC” value ([2]; EcMero strain IDR1600035372) of the same molecule?
Answer: 0.5 mg/L

Question: And the “mero MIC” value ([6]; KpMero strain AR0034)?
Answer: 2 mg/L

Question: And the “mero MIC” value ([6]; KpMero strain AR0040)?
Answer: >32 mg/L

Question: And the “mero MIC” value ([6]; KpMero strain AR0041)?
Answer: 16 mg/L

Question: And the “mero MIC” value ([6]; KpMero strain AR0042)?
Answer: <0.5 mg/L

Question: And the “mero MIC” value ([6]; KpMero strain AR0043)?
Answer: 2 mg/L

Question: And the “mero MIC” value ([6]; KpMero strain AR0044)?
Answer: 4 mg/L

Question: What about the “mero MIC” value ([6]; KpMero strain AR0047) of the same molecule?
Answer: 4 mg/L

Question: What about the “mero MIC” value ([6]; KpMero strain AR0075) of the same molecule?
Answer: 8 mg/L

Question: And the “mero MIC” value ([6]; KpMero strain AR0087)?
Answer: 1 mg/L

Question: What about the “mero MIC” value ([6]; KpMero strain AR0135) of the same molecule?
Answer: 8 mg/L

Question: What about the “mero MIC” value ([6]; KpMero strain AR0139) of the same molecule?
Answer: 32 mg/L

Question: And the “mero MIC” value ([6]; KpMero strain BAA2524 (RB554), value marked *)?
Answer: 0.5* mg/L

Question: And the “mero MIC” value ([6]; KpMero strain BIDMC_14)?
Answer: 16 mg/L

Question: What about the “mero MIC” value ([6]; KpMero strain BIDMC_22) of the same molecule?
Answer: 0.25 mg/L

Question: What about the “mero MIC” value ([6]; KpMero strain BIDMC_31) of the same molecule?
Answer: 0.125 mg/L

Question: And the “mero MIC” value ([6]; KpMero strain BIDMC_35)?
Answer: >32 mg/L

Question: What about the “mero MIC” value ([6]; KpMero strain BIT-03) of the same molecule?
Answer: 8 mg/L

Question: And the “mero MIC” value ([6]; KpMero strain BIT-04)?
Answer: 32 mg/L

Question: What about the “mero MIC” value ([6]; KpMero strain BIT-05) of the same molecule?
Answer: >32 mg/L

Question: What about the “mero MIC” value ([6]; KpMero strain BIT-12) of the same molecule?
Answer: <0.5 mg/L

Question: What about the “mero MIC” value ([6]; KpMero strain BIT-16) of the same molecule?
Answer: ≤0.5 mg/L

Question: What about the “mero MIC” value ([6]; KpMero strain BWH_2) of the same molecule?
Answer: 16 mg/L

Question: What about the “mero MIC” value ([6]; KpMero strain BWH_15) of the same molecule?
Answer: 8 mg/L

Question: And the “mero MIC” value ([6]; KpMero strain BWH_30)?
Answer: ≤0.5 mg/L

Question: What about the “mero MIC” value ([6]; KpMero strain BWH_36) of the same molecule?
Answer: 16 mg/L

Question: And the “mero MIC” value ([6]; KpMero strain CDC_1500610)?
Answer: ≤0.5 mg/L

Question: What about the “mero MIC” value ([6]; KpMero strain IDR1200023303) of the same molecule?
Answer: >32 mg/L

Question: And the “mero MIC” value ([6]; KpMero strain IDR1600031102-01-00)?
Answer: >32 mg/L

Question: And the “mero MIC” value ([6]; KpMero strain IDR1600037310)?
Answer: 1 mg/L

Question: What about the “mero MIC” value ([6]; KpMero strain IDR1600057468-01-00) of the same molecule?
Answer: 4 mg/L

Question: What about the “mero MIC” value ([6]; KpMero strain MGH_17) of the same molecule?
Answer: ≤0.5 mg/L

Question: What about the “mero MIC” value ([6]; KpMero strain MGH_18) of the same molecule?
Answer: ≤0.5 mg/L

Question: And the “mero MIC” value ([6]; KpMero strain MGH_19)?
Answer: ≤0.5 mg/L

Question: What about the “mero MIC” value ([6]; KpMero strain MGH_20) of the same molecule?
Answer: ≤0.5 mg/L

Question: And the “mero MIC” value ([6]; KpMero strain MGH_31)?
Answer: 8 mg/L

Question: And the “mero MIC” value ([6]; KpMero strain MGH_35)?
Answer: 2 mg/L

Question: And the “mero MIC” value ([6]; KpMero strain MGH_36)?
Answer: ≤0.5 mg/L

Question: And the “mero MIC” value ([6]; KpMero strain MGH_39)?
Answer: 2 mg/L

Question: What about the “mero MIC” value ([6]; KpMero strain MGH_48) of the same molecule?
Answer: ≤0.5 mg/L

Question: What about the “mero MIC” value ([6]; KpMero strain MGH_71) of the same molecule?
Answer: 32 mg/L

Question: What about the “mero MIC” value ([6]; KpMero strain RB039) of the same molecule?
Answer: ≤0.5 mg/L

Question: And the “mero MIC” value ([6]; KpMero strain RB041)?
Answer: ≤0.5 mg/L

Question: And the “mero MIC” value ([6]; KpMero strain RB042)?
Answer: ≤0.5 mg/L

Question: What about the “mero MIC” value ([6]; KpMero strain UCI_7) of the same molecule?
Answer: 0.25 mg/L

Question: What about the “mero MIC” value ([6]; KpMero strain UCI_19) of the same molecule?
Answer: >32 mg/L

Question: And the “mero MIC” value ([6]; KpMero strain UCI_37)?
Answer: 32 mg/L

Question: And the “mero MIC” value ([6]; KpMero strain UCI_38)?
Answer: ≤0.5 mg/L

Question: And the “mero MIC” value ([6]; KpMero strain UCI_44)?
Answer: 0.25 mg/L

Question: What about the “mero MIC” value ([6]; KpMero strain UCI_61) of the same molecule?
Answer: 32 mg/L

Question: What about the “mero MIC” value ([6]; KpMero strain UCI_64) of the same molecule?
Answer: 0.25 mg/L
